Where two headings read alike, the source gives them in different places.

Assay [1] deals with Alternaria sonali, Fulvia fulva, Botrytis cinerea and Rhizoctonia solani. Also noted: method as in PMID 23451708. Particulars: 4 fungal pathogens; cited from earlier work.
In the next assay the test system is Candida albicans CYP51. Also noted: method as in PMID 23275516. Particulars: cited from earlier work.
For assay [2], the target named is T1, ScErg11p6×His (S. cerevisiae lanosterol 14α-demethylase) (Saccharomyces cerevisiae, UniProt P10614).
T1 construct: Crystal structures of the full length S. cerevisiae lanosterol 14α-demethylase (ScErg11p6×His); 6×His (hexahistidine); made in house; host or cells: Saccharomyces cerevisiae (AD3Δ overexpression strain, native ERG11 deleted)
The assay is described as follows: Type II binding (difference spectra) to affinity purified ScErg11p6×His. Particulars: for Induced spectral shift on ligand binding Wavelength: Soret peak, (-) indicates no significant change in Soret peak wavelength. How it is done:
Type II azole binding is characterised by a shift of the Soret peak from 417 nm to 421–424 nm in ScErg11p6×His and other cytochrome P450s. The type II difference spectra were used to detect and quantitate binding of the inhibitors S-TBZ, R-TBZ, S-PTZ, R-PTZ, S-DPZ, R-DPZ, S-oxo-PTZ and R-oxo-PTZ, FQZ, and PRZ using Ni-NTA affinity purified wild type ScErg11p6×His preparations at 1 μM. Spectral shifts, [Azole]0.5 values, Hill coefficients as well as Type II difference spectra binding curves are shown in S3 Table (selected spectra shown in S2 Fig) and Fig 6, respectively.
Samples of Ni-NTA-agarose affinity purified ScErg11p6×His were eluted with 40 mM histidine instead of imidazole as described by Warrilow et al.. Samples were washed free of the histidine and concentrated by centrifugal filtration using a 50 kDa molecular-weight cut-off Amicon Ultra-4 centrifugal filter (Millipore) to give protein with a Soret peak at 417 nm. Carbon monoxide binding was used to determine the concentration of functional cytochrome P450 for drug binding studies as described previously based on the protocol described by Guengerich et al. Saturation curves for the binding of type II ligands were determined by obtaining difference spectra for functional enzyme at 1 μM as described previously. […] All calculations were carried out using GraphPad Prism 6 Software (GraphPad Prism, San Diego, CA). [Azole]0.5 values were defined as the concentration of the azole drug that gave half ΔAmax.
Hill coefficients and Kd values were obtained by applying the Hill equation as described in Materials and methods. (-) indicates no significant change in Soret peak wavelength on exposure to the ligand. The data presented is a representative set

T1 sequence (P10614 whole entry): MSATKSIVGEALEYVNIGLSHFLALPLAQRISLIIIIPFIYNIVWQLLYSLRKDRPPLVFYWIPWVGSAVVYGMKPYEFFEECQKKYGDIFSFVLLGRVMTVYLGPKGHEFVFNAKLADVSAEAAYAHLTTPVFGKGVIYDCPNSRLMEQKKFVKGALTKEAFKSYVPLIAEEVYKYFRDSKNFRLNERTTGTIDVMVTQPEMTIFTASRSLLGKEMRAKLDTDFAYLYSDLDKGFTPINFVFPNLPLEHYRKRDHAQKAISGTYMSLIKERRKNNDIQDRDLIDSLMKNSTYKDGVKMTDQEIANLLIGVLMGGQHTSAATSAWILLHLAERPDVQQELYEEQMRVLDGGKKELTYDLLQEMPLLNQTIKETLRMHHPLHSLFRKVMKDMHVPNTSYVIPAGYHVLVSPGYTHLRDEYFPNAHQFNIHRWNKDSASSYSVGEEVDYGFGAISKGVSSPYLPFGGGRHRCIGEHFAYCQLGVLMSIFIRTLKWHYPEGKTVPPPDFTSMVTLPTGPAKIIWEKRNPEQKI

Regarding `C[C@@H]1CO[C@@](Cn2cncn2)(c2ccc(Oc3ccc(Cl)cc3)cc2Cl)O1` [2S,4R stereoisomer, 1-(((2S,4R)-2-(2-chloro-4-(4-chlorophenoxy)phenyl)-4-methyl-1,3-dioxolan-2-yl)methyl)-1H-1,2,4-triazole], in assay [1], the “stereoselective bioactivity among DFC stereoisomers” value was “most active compound”.

As for `OC(Cc1ccccc1Cl)(Cn1cncn1)C1(Cl)CC1` (stereo not shown) [DPZ, prothioconazole-desthio], the Kd in the assay with Candida albicans CYP51 (read-out: Kd (tight type II binding), Candida albicans CYP51, type II binding) is 0.0364 ± 0.0107 µM. In addition, the mode of inhibition result in assay [2] (ScErg11p6×His) is “non-competitive inhibitors”. In assay [2], the “Induced spectral shift on ligand binding Wavelength” value is reported as 417 nm to ~421.

For `OC(Cc1ccccc1Cl)(Cn1nc[nH]c1=S)C1(Cl)CC1` (stereo not shown) [PTZ, prothioconazole], in the assay on Candida albicans CYP51 (Candida albicans CYP51, type I difference spectra, read-out: Kd (weak type I difference spectra)), the Kd is 6.3 ± 1.5 µM. In assay [2], the “Induced spectral shift on ligand binding Wavelength” value is “absence of a spectral shift”. For the same molecule, the “type of binding (difference spectra)” value in assay [2] (azole up to 2 μM, 1 μM ScErg11p6×His) is listed as “no binding”.
